The text below walks through data of patent US12427166B2, “Antifungal agent” (priority 2015, dated 2025).

Broadly, the MIC is the least concentration at which growth counts as inhibited.

Holding throughout (assay): EUCAST micro broth dilution in vitro susceptibility testing
What all share (type): cell-based
For orientation: In broth dilution the organism is exposed to a series of concentrations in liquid medium.

Experiment [1] deals with Aspergillus fumigatus ATCC 204305 (wild type). As for the experimental part:
(§1) The antifungal activity of a composition comprising Poly-(hexamethylene-guanidium chloride) and N,N-didecyl-N-methyl-poly(oxyethyl) ammonium propionate in a ratio of about 1:1 with respect to the molar amount was tested on wild type Aspergillus fumigatus (ATCC 204305) and azole resistant strains (TR 34/L98H and TR46/Y121F/T289A) as well as one clinical sample of Fusarium proliferatum and one clinical sample of Scedosporium Apiospermum was evaluated by means of EUCAST micro broth dilution1. This test method is currently recognized as the gold standard for in vitro susceptibility testing of filamenteus fungi. The test drug was diluted 1:30 in RPMI 1640 in order to obtain a max test concentration of 100 PPM. The test was performed three times for each test strain. The test drug was tested in the concentration range from 1-100 ppm.

Experiment [2] relates to Aspergillus fumigatus TR34/L98H (azole resistant). On the procedure:
as §1

Experiment [3] concerns Aspergillus fumigatus TR46/Y121F/T289A (azole resistant). On the procedure: as §1
Experiment [4] has as its system Fusarium Proliferatum (clinical sample). On the procedure: as §1
Experiment [5] deals with Scedosporium Apiospermum (clinical sample). As for the experimental part: as §1
Setting [6] is: Aspergillus fumigatus TR34/L98H.
Setting [7] is: Aspergillus fumigatus TR46/Y121F/T289A.

Molecules are shown by their SMILES. In brackets after ≈: the same amount, converted by molar mass. Where two headings read alike, the source gives them in different places.

As to `CCC(C)n1ncn(-c2ccc(N3CCN(c4ccc(OCC5COC(Cn6cncn6)(c6ccc(Cl)cc6Cl)O5)cc4)CC3)cc2)c1=O` (stereo not shown) [Itraconazol], the MIC in experiment [1] is 0.125 µg/mL (≈ 0.177 µM); in experiment [2] (Aspergillus fumigatus), more than 8 µg/mL; in experiment [3] (Aspergillus fumigatus), 1 µg/mL (≈ 1.42 µM); in experiment [4] (read-out: MIC) it was more than 8 µg/mL; in experiment [5] (read-out: MIC), 0.25 µg/mL (≈ 0.354 µM).

Turning to `C[C@@H](c1ncncc1F)[C@](O)(Cn1cncn1)c1ccc(F)cc1F` [Voriconazol], the MIC in experiment [1] (ATCC204305, read-out: MIC) was 0.5 µg/mL (≈ 1.43 µM); in experiment [2] (Aspergillus fumigatus) it was 4 µg/mL (≈ 11.5 µM); in experiment [3] (Aspergillus fumigatus), more than 16 µg/mL; in experiment [4] (read-out: MIC), 4 µg/mL (≈ 11.5 µM); in experiment [5] (read-out: MIC), 0.25 µg/mL (≈ 0.716 µM).

On to `C[C@@H]1[C@H](O)[C@@H](C)/C=C/C=C/C=C/C=C/C=C/C=C/C=C/[C@H](O[C@@H]2O[C@H](C)[C@@H](O)[C@H](N)[C@@H]2O)C[C@@H]2O[C@](O)(C[C@@H](O)C[C@@H](O)[C@H](O)CC[C@@H](O)C[C@@H](O)CC(=O)O[C@H]1C)C[C@H](O)[C@H]2C(=O)O` [Amphotericin B], for which the MIC in experiment [1] worked out at 0.25 µg/mL (≈ 0.271 µM); in experiment [2] (setting [6]), 0.25 µg/mL (≈ 0.271 µM); in experiment [3] (setting [7]), 0.25 µg/mL (≈ 0.271 µM); in experiment [4], 1 µg/mL (≈ 1.08 µM); in experiment [5] it was 4 µg/mL (≈ 4.33 µM).

Regarding `CN(C/C=C/C#CC(C)(C)C)Cc1cccc2ccccc12` [Terbinafin], the MIC in experiment [1] is 2 µg/mL (≈ 6.86 µM); in experiment [2] (setting [6]) it was 4 µg/mL (≈ 13.7 µM); in experiment [3] (setting [7]), 2 µg/mL (≈ 6.86 µM); in experiment [4], 1 µg/mL (≈ 3.43 µM); in experiment [5], more than 16 µg/mL.

As to `C[C@@H]1C/C=C/C=C/C=C/C=C/[C@H](O[C@@H]2O[C@H](C)[C@@H](O)[C@H](N)[C@@H]2O)C[C@@H]2O[C@](O)(C[C@@H](O)C[C@H]3O[C@@H]3/C=C/C(=O)O1)C[C@H](O)[C@H]2C(=O)O` [Natamycin], the MIC was 4 µg/mL (≈ 6.01 µM) in experiment [1] (ATCC204305, read-out: MIC); 4 µg/mL (≈ 6.01 µM) in experiment [2] (Aspergillus fumigatus); 2 µg/mL (≈ 3 µM) in experiment [3] (Aspergillus fumigatus); 4 µg/mL (≈ 6.01 µM) in experiment [4] (read-out: MIC); 2 µg/mL (≈ 3 µM) in experiment [5] (read-out: MIC).
